Legend:
p110 delta = target: T1, p110 delta (Homo sapiens, UniProt O00329); test: PI3K isoform inhibition assay (fluorescence polarization), p110 delta; assay type: biochemical; settings: p110 delta binding IC50, Example 901
T1 construct: purchased Upstate Group, Millipore; Dundee, UK
Description: (§1) PI3K enzymatic activity was assayed by measuring the amount of product phosphatidylinositol 3,4,5-phosphate (PIP3) formed from substrate 4,5 phosphatidylinositol 4,5-phosphate (PIP2) using a fluorescence polarization displacement assay. The decrease in fluorescence polarization of a fluorescent PIP3 probe is measured as it is displaced from a PIP3-binding protein GRP-1 detector by PI3K-catalyzed product. Assays were conducted in 384-well black Proxiplates in the presence of 10 mM Tris (pH 7.5), 50 mM NaCl, 4 mM MgCl2, 5% glycerol, 25 μM ATP, 10 μM PIP2 (Echelon Biosciences), 0.05% 3-[(3-cholamidopropyl)dimethylammonio]-1-propanesulfonate, 1 mM dithiothreitol, and 2% DMSO. The kinase reactions were initiated by the addition of 40 ng/mL p110α/p85α, 300 ng/mL p110β/p85α, 40 ng/mL p110γ, or 40 ng/mL p110δ/p85α (Upstate Group, Millipore; Dundee, UK), and 10 μM PIP2 (Echelon Biosciences) to the wells. The reactions were stopped at timepoints that yielded a fixed change in fluorescence polarization consistent with initial rate conditions (typically 30 minutes), by the addition of 12.5 mM EDTA, 100 nM GRP-1 detector, and 5 nM tetramethylrhodamine-labeled PIP3 (TAMRA-PIP3; Echelon Biosciences). After 60 minutes of incubation at room temperature to allow equilibration of labeled and unlabeled PIP3 binding, the parallel and perpendicular components of the fluorescence emissions from each sample were measured at an excitation wavelength of 530 nm and an emission wavelength of 590 nm using an Envision fluorescent plate reader with a rhodamine filter (PerkinElmer Life and Analytical Sciences; Wellesley, Mass.). The assay is capable of detecting 0.1-2.0 μM PIP3 product. The IC50 values were obtained by fitting the dose-dependent inhibition data to a 4-parameter equation using Assay Explorer software (MDL, San Ramon, Calif.). […]
Recombinant PI3K p110 isoforms alpha, beta, and delta may be prepared and purified according to US 2008/0275067 from recombinant PI3K heterodimeric complexes consisting of a p110 catalytic subunit and a p85 regulatory subunit overexpressed using the BAC-TO-BAC® HT baculovirus expression system (GIBCO/BRL), and then purified for use in biochemical assays. The four Class I PI 3-kinases are cloned into baculovirus vectors as follows:
p110 delta: A FLAG™-tagged (Eastman Kodak Co., U.S. Pat. No. 4,703,004; U.S. Pat. No. 4,782,137; U.S. Pat. No. 4,851,341) version of human p110.delta (Chantry et al., J. Biol. Chem. (1997) 272:19236-41) is subcloned using standard recombinant DNA techniques into the BamH1-Xba1 site of the insect cell expression vector pFastbac HTb (Life Technologies, Gaithersburg, Md.), such that the clone is in frame with the His tag of the vector.

[1] = test system: production of CD69 by B lymphocytes in human whole blood activated with goat F(ab')2 anti-human IgM; test: CD69 Whole Blood Assay; assay type: cell-based; settings: Lymphocyte, anti-IgM stimulated, CD69 positive of CD20 positive cells, 20 hours
Text: There is good evidence that B-cells play a key role in the pathogenesis of autoimmune and/or inflammatory disease. Protein-based therapeutics that deplete B cells such as Rituxan are effective against autoantibody-driven inflammatory diseases such as rheumatoid arthritis (Rastetter et al. (2004) Annu Rev Med 55:477). CD69 is the early activation marker in leukocytes including T cells, thymocytes, B cells, NK cells, neutrophils, and eosinophils. The CD69 human whole blood assay (Example 903) determines the ability of compounds to inhibit the production of CD69 by B lymphocytes in human whole blood activated by crosslinking surface IgM with goat F(ab′)2 anti-human IgM.
Human blood is obtained from healthy volunteers, with the following restrictions: 1 week drug-free, non-smokers. Blood (approximately 20 mls to test 8 compounds) is collected by venipuncture into Vacutainer tubes with sodium heparin.
Solutions of Formula I compounds at 1000 or 2000 μM in PBS (20×), are diluted by three-fold serial dilutions in 10% DMSO in PBS for a nine point dose-response curve. An aliquot of 5.5 μl of each compound is added in duplicate to a 2 ml 96-well plate; 5.5 μl of 10% DMSO in PBS is added as control and no-stimulus wells. Human whole blood-HWB (100 μl) is added to each well. After mixing the plates are incubated at 37° C., 5% CO2, 100% humidity for 30 minutes. Goat F(ab′)2 anti-human IgM (10 μl of a 500 μg/ml solution, 50 μg/ml final) is added to each well (except the no-stimulus wells) with mixing and the plates are incubated for an additional 20 hours. At the end of the 20 hour incubation, samples are incubated with florescent labeled antibodies for 30 minutes, at 37° C., 5% CO2, 100% humidity. Include induced control, unstained and single stains for compensation adjustments and initial voltage settings. Samples are then lysed with Pharmingen Lyse according to the manufacturer's instructions. Samples are then transferred to a 96 well plate suitable to be run on the AMS 96 well system on the BD Calibur FACs machine. Data acquired and Mean Fluorescence Intensity values were obtained using Cell Quest Software. Results are initially analyzed by FACS analysis software (Flow Jo). […] The IC50 values are calculated by ActivityBase using Xlfit version 3, equation 201.

p110 alpha = target: T2, p110 alpha (Homo sapiens, UniProt P42336); test: PI3K isoform inhibition assay (fluorescence polarization), p110 alpha, used for delta/alpha selectivity; settings: ratio of biochemical IC50 values
T2 construct: purchased Upstate Group, Millipore; Dundee, UK
T2 sequence (P42336 whole entry, canonical isoform): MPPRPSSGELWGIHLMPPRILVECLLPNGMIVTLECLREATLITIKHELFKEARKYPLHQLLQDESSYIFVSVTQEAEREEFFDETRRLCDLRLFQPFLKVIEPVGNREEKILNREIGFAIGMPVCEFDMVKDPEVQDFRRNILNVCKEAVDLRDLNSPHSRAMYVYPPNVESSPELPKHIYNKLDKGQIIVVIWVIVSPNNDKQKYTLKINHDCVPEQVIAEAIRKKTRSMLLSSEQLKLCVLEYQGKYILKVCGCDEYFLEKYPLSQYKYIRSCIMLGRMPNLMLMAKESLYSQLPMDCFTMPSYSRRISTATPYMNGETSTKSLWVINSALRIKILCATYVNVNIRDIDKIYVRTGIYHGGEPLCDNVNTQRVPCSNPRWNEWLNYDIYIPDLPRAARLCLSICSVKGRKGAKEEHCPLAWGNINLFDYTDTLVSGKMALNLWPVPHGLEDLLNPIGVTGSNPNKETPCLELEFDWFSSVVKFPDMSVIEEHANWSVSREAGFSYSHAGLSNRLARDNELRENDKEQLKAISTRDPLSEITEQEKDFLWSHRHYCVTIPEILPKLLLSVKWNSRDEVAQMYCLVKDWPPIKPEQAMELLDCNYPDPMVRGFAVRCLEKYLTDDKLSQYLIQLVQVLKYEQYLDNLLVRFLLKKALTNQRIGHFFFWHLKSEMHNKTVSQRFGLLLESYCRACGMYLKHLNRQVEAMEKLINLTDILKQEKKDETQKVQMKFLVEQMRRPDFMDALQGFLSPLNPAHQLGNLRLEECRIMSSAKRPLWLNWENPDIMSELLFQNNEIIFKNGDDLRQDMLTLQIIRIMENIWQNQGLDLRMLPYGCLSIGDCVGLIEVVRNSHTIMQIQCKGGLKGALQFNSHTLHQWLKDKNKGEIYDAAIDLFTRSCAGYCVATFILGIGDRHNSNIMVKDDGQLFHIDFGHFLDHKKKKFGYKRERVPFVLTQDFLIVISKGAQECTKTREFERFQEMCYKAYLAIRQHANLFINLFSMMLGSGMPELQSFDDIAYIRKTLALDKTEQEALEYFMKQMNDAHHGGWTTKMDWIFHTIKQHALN
T2 sequence (P27986 whole entry partner, canonical isoform): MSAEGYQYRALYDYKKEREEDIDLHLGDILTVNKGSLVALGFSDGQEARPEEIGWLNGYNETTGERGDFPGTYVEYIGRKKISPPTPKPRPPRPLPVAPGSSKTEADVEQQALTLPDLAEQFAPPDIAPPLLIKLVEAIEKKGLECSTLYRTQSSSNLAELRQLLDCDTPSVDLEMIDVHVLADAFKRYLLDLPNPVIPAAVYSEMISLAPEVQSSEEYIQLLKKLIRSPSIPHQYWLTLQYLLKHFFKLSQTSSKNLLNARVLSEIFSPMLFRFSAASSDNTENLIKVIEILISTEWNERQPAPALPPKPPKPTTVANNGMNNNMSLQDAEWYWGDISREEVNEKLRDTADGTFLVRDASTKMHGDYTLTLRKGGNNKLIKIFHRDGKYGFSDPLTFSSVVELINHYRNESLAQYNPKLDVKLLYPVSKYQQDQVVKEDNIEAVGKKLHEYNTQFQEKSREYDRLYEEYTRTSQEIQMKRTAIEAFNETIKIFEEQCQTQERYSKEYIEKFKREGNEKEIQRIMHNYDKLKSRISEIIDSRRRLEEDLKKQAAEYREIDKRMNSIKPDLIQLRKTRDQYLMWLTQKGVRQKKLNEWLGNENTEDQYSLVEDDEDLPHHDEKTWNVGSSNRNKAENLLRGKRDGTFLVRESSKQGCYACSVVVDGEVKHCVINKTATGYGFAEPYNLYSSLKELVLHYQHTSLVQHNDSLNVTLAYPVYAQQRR
Description: as §1
The same protocol was used to establish IC50 values for p110α (alpha) PI3K binding. […]

T1 sequence (O00329 whole entry, canonical isoform): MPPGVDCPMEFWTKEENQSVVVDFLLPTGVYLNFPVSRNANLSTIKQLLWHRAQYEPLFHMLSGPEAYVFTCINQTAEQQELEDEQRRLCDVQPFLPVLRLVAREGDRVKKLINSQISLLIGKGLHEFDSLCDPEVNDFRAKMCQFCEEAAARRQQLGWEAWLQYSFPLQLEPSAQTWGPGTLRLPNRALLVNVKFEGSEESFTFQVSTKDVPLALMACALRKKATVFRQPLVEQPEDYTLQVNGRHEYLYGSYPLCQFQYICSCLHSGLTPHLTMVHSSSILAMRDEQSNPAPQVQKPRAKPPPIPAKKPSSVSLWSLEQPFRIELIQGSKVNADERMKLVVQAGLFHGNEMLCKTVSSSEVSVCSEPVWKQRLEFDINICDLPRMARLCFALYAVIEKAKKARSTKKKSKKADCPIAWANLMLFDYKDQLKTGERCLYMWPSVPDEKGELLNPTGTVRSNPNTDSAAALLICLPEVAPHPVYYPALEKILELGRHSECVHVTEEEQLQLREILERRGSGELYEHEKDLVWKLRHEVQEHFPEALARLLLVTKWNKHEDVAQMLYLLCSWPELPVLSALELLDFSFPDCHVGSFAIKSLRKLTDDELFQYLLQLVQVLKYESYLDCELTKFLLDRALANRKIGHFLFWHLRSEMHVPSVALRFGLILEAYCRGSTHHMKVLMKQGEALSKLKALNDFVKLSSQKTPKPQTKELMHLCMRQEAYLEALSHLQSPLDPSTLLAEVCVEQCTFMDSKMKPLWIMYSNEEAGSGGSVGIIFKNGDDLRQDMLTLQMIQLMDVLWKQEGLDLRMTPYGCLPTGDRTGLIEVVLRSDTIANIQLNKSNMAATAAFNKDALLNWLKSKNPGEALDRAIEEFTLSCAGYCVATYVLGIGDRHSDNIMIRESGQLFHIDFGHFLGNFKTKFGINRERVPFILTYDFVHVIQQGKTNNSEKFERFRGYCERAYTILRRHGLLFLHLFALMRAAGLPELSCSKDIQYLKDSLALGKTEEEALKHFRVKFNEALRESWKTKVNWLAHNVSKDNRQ
T1 sequence (P27986 whole entry partner, canonical isoform): as the sequence (P27986 whole entry partner, canonical isoform) above

| Structure (SMILES) | IC50 (p110 delta) [nM] | IC50 [1] [nM] | IC50 p110 alpha/IC50 p110 delta (p110 alpha) |
| --- | --- | --- | --- |
| CN(C)[C@@H]1CCN(Cc2nc3c(N4CCOCC4)nc(-c4c[nH]c5ccccc45)nc3n2C)C[C@@H]1F [Compound 122, (3S,4R)-1-((2-(1H-indol-3-yl)-9-methyl-6-morpholino-9H-purin-8-yl)methyl)-3-fluoro-N,N-dimethylpiperidin-4-amine] | 7.5 | 188 | 96 |
| Cn1c(CN2CCC(C(C)(C)O)CC2)nc2c(N3CCOCC3)nc(-c3c[nH]c4cc(F)ccc34)nc21 [Compound 124, 2-(1-((2-(6-fluoro-1H-indol-3-yl)-9-methyl-6-morpholino-9H-purin-8-yl)methyl)piperidin-4-yl)propan-2-ol] | 616 |  | >160 |
| CN(C)C1CCN(Cc2cc3nc(-c4c[nH]c5ccc(F)cc45)nc(N4CCOCC4)c3s2)CC1 [Compound 113, 1-((2-(5-fluoro-1H-indol-3-yl)-4-morpholinothieno[3,2-d]pyrimidin-6-yl)methyl)-N,N-dimethylpiperidin-4-amine] | 102 |  | 13 |
| Cn1c(CN2CCC(C(C)(C)O)CC2)nc2c(N3CCOCC3)nc(-n3c(C#N)cc4ccccc43)nc21 [Compound 136, 1-(8-((4-(2-hydroxypropan-2-yl)piperidin-1-yl)methyl)-9-methyl-6-morpholino-9H-purin-2-yl)-1H-indole-2-carbonitrile] | 20 | 4600 | 265 |
| COCc1cc2ccccc2n1-c1nc(N2CCOCC2)c2nc(CN3CCC(C(C)(C)O)CC3)n(C)c2n1 [Compound 127, 2-(1-((2-(2-(methoxymethyl)-1H-indol-1-yl)-9-methyl-6-morpholino-9H-purin-8-yl)methyl)piperidin-4-yl)propan-2-ol] | 29 | 891 | 186 |
| Cn1c(CN2CCC(N3CCOCC3)CC2)nc2c(N3CCOCC3)nc(-c3c[nH]c4ccccc34)nc21 [Compound 104, 4-(1-((2-(1H-indol-3-yl)-9-methyl-6-morpholino-9H-purin-8-yl)methyl)piperidin-4-yl)morpholine] | 47.7 | 623 | 105 |
| CN(C)C1CCN(Cc2cc3nc(-n4ccc5ccccc54)nc(N4CCOCC4)c3s2)CC1 [Compound 103, 1-((2-(1H-indol-1-yl)-4-morpholinothieno[3,2-d]pyrimidin-6-yl)methyl)-N,N-dimethylpiperidin-4-amine] | 10.4 |  | 54 |
| Cc1cc2cc(F)ccc2n1-c1nc(N2CCOCC2)c2sc(CN3CCC(N(C)C)CC3)cc2n1 [Compound 119, 1-((2-(5-fluoro-2-methyl-1H-indol-1-yl)-4-morpholinothieno[3,2-d]pyrimidin-6-yl)methyl)-N,N-dimethylpiperidin-4-amine] | 23.6 | 950 | 68 |
| CN(C)C1CCN(Cc2cc3nc(-c4c[nH]c5ccccc45)nc(N4CCOCC4)c3s2)CC1 [Compound 101, 1-((2-(1H-indol-3-yl)-4-morpholinothieno[3,2-d]pyrimidin-6-yl)methyl)-N,N-dimethylpiperidin-4-amine] |  | 17.3 | 101 |
| CC(C)(OCCN1CCCC1)c1cc2nc(-c3c[nH]c4ccccc34)nc(N3CCOCC3)c2s1 [Compound 125] | 8.4 |  | 63 |
| O=C1COC2(CCN(Cc3cc4nc(-c5c[nH]c6ccccc56)nc(N5CCOCC5)c4s3)CC2)CN1 [Compound 116, 9-((2-(1H-indol-3-yl)-4-morpholinothieno[3,2-d]pyrimidin-6-yl)methyl)-1-oxa-4,9-diazaspiro[5.5]undecan-3-one] | 55 |  | 25 |
| CC(C)(C(N)=O)N1CCN(Cc2cc3nc(-c4c(C#N)[nH]c5ccccc45)nc(N4CCOCC4)c3s2)CC1 [Compound 129, 2-(4-((2-(2-cyano-1H-indol-3-yl)-4-morpholinothieno[3,2-d]pyrimidin-6-yl)methyl)piperazin-1-yl)-2-methylpropanamide] | 3.4 |  | 238 |
| CN(C)C1CCN(Cc2cc3nc(N4CCc5ccccc54)nc(N4CCOCC4)c3s2)CC1 [Compound 102, 1-((2-(indolin-1-yl)-4-morpholinothieno[3,2-d]pyrimidin-6-yl)methyl)-N,N-dimethylpiperidin-4-amine] | 20.8 | 1700 | 34 |
| c1ccc2c(-c3nc(N4CCOCC4)c4nc(CN5CC(N6CCOCC6)C5)sc4n3)c[nH]c2c1 [Compound 117, 4-(5-(1H-indol-3-yl)-2-((3-morpholinoazetidin-1-yl)methyl)thiazolo[5,4-d]pyrimidin-7-yl)morpholine] | 2 | 84 | 198 |
| CN(C)C1CCN(Cc2cc3nc(-n4ccc5cc(O)ccc54)nc(N4CCOCC4)c3s2)CC1 [Compound 132, 1-(6-((4-(dimethylamino)piperidin-1-yl)methyl)-4-morpholinothieno[3,2-d]pyrimidin-2-yl)-1H-indol-5-ol] | 22 |  | 37 |

Source: patent US8158625B2, “Bicyclic indole-pyrimidine PI3K inhibitor compounds selective for P110 delta, and methods of use” (Genentech, Inc., priority 2009, dated 2012)
